Measurements taken from ChEMBL document CHEMBL1759997, “Discovery of a piperazine urea based compound as a potent, selective, orally bioavailable melanocortin subtype-4 receptor partial agonist” (Bioorg Med Chem Lett, 2011).
Activity calls are given as the source filed them. The calls are words filed in the database; no cut-off is given here.

What was measured:
[1] = molecular target: T1, Melanocyte-stimulating hormone receptor (Homo sapiens, UniProt Q01726); assay: Displacement of [125I]NDP-alpha-MSH from human MC1 receptor expressed in CHO cells; type: cell-based
Target sequence in this assay (Q01726 whole entry): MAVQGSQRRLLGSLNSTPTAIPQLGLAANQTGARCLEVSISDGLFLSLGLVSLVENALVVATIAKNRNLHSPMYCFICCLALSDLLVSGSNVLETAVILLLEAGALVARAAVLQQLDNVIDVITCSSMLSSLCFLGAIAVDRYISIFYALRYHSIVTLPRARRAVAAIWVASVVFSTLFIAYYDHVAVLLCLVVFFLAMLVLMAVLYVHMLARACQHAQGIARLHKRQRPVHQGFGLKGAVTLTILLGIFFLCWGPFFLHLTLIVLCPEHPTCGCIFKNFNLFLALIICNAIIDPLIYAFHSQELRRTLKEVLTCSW

Melanocortin receptor 3 [2] = molecular target: T2, Melanocortin receptor 3 (Homo sapiens, UniProt P41968); assay: Displacement of [125I]NDP-alpha-MSH from human MC3 receptor expressed in CHO cells; type: cell-based
T2 sequence (P41968 whole entry): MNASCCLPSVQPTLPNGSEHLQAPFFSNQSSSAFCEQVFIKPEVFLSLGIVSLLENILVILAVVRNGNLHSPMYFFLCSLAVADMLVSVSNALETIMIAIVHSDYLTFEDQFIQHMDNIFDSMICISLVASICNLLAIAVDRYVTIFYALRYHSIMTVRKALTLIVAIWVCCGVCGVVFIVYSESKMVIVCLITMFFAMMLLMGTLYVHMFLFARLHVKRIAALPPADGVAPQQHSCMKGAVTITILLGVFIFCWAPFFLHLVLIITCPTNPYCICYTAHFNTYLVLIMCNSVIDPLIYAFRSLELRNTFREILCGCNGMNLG

Melanocortin receptor 4 [3] = molecular target: T3, Melanocortin receptor 4 (Homo sapiens, UniProt P32245); assay: Displacement of [125I]NDP-alpha-MSH from human MC4 receptor expressed in CHO cells; type: cell-based
T3 sequence (P32245 whole entry): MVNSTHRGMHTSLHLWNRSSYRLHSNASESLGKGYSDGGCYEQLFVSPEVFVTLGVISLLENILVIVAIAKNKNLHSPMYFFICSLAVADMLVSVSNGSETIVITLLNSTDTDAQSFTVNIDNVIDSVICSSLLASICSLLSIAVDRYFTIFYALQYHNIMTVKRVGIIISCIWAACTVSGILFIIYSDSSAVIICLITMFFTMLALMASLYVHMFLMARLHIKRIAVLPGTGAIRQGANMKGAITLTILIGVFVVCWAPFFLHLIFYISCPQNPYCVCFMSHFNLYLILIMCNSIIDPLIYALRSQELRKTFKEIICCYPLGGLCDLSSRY

Melanocortin receptor 5 [4] = molecular target: T4, Melanocortin receptor 5 (Homo sapiens, UniProt P33032); assay: Displacement of [125I]NDP-alpha-MSH from human MC5 receptor expressed in CHO cells; type: cell-based
T4 sequence (P33032 whole entry): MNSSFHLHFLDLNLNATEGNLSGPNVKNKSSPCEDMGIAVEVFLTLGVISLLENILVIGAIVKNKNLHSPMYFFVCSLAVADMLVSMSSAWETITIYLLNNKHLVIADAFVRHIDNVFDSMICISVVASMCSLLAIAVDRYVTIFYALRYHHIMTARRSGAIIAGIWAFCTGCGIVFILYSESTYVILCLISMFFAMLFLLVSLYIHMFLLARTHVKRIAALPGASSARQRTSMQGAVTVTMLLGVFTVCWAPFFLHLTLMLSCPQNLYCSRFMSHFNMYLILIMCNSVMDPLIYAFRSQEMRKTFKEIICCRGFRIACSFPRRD

[5] = molecular target: T1, Melanocyte-stimulating hormone receptor; assay: Agonist activity at human MC1 receptor expressed in CHO cells assessed as cAMP accumulation; type: functional, cell-based
Target sequence in this assay (Q01726 whole entry): as the sequence (Q01726 whole entry) above

[6] = molecular target: T1, Melanocyte-stimulating hormone receptor; assay: Agonist activity at human MC1 receptor expressed in CHO cells assessed as cAMP accumulation at 10 uM relative to alpha-MSH; type: functional, cell-based
Target sequence in this assay (Q01726 whole entry, looked up): as the sequence (Q01726 whole entry) above

Melanocortin receptor 3 [7] = molecular target: T2, Melanocortin receptor 3; assay: Agonist activity at human MC3 receptor expressed in CHO cells assessed as cAMP accumulation at 10 uM relative to alpha-MSH; type: functional, cell-based
Melanocortin receptor 4 [8] = molecular target: T3, Melanocortin receptor 4; assay: Agonist activity at human MC4 receptor expressed in CHO cells assessed as cAMP accumulation at 10 uM relative to alpha-MSH; type: functional, cell-based
Melanocortin receptor 5 [9] = molecular target: T4, Melanocortin receptor 5; assay: Agonist activity at human MC5 receptor expressed in CHO cells assessed as cAMP accumulation at 10 uM relative to alpha-MSH; type: functional, cell-based
[10] = Oral bioavailability in Sprague-Dawley rat at 1 mg/kg and 4 mg/kg; type: ADME, organism-based; details: in vivo
[11] = Clearance in Sprague-Dawley rat at 1 mg/kg, iv and 4 mg/kg, po; type: ADME, organism-based; details: in vivo
[12] = Volume of distribution in Sprague-Dawley rat at 1 mg/kg, iv and 4 mg/kg, po; type: ADME, organism-based; details: in vivo, read-out: Vdss
[13] = Half life in Sprague-Dawley rat at 1 mg/kg, iv and 4 mg/kg, po; type: ADME, organism-based; details: in vivo
Melanocortin receptor 4 [14] = molecular target: T3, Melanocortin receptor 4; assay: Agonist activity at human MC4 receptor expressed in CHO cells assessed as cAMP accumulation; type: functional, cell-based
Melanocortin receptor 5 [15] = molecular target: T4, Melanocortin receptor 5; assay: Agonist activity at human MC5 receptor expressed in CHO cells assessed as cAMP accumulation; type: functional, cell-based
[16] = Oral bioavailability in Beagle dog at 1 mg/kg; type: ADME, organism-based, Canis lupus familiaris; details: in vivo
[17] = Clearance in Beagle dog at 1 mg/kg, po; type: ADME, organism-based, Canis lupus familiaris; design: dose 1 mg/kg, route oral; details: in vivo
Canis familiaris = assay: Volume of distribution in Beagle dog at 1 mg/kg, po; type: ADME, organism-based, Canis lupus familiaris; design: dose 1 mg/kg, route oral; details: in vivo
[18] = Half life in Beagle dog at 1 mg/kg, po; type: ADME, organism-based, Canis lupus familiaris; design: dose 1 mg/kg, route oral; details: in vivo
[19] = Oral bioavailability in rhesus monkey at 1 mg/kg; type: ADME, organism-based, Macaca mulatta; details: in vivo
[20] = Clearance in rhesus monkey at 1 mg/kg, po; type: ADME, organism-based, Macaca mulatta; design: dose 1 mg/kg, route oral; details: in vivo
Rhesus monkey = assay: Volume of distribution in rhesus monkey at 1 mg/kg, po; type: ADME, organism-based, Macaca mulatta; design: dose 1 mg/kg, route oral; details: in vivo
[21] = Half life in rhesus monkey at 1 mg/kg, po; type: ADME, organism-based, Macaca mulatta; design: dose 1 mg/kg, route oral; details: in vivo
Mus musculus [22] = assay: Antiobesity activity in wild type mouse assessed as reduction in food intake at 20 mg/kg after 4 hrs post dosing relative to control; type: functional; design: scale not given: the % may be the effect or the level left
Mus musculus [23] = assay: Antiobesity activity in MC3R/MC4R knockout mouse assessed as reduction in food intake at 20 mg/kg after 4 hrs post dosing relative to control; type: functional, organism-based; design: dose 20 mg/kg
Rattus norvegicus [24] = assay: Antiobesity activity in diet-induced obesity rat model assessed as reduction in body weight at 5 mg/kg, po BID for 14 days relative to control; type: functional, organism-based; design: dose 5 mg/kg
Rattus norvegicus [25] = assay: Antiobesity activity in diet-induced obesity rat model assessed as reduction in body weight at 10 mg/kg, po BID for 14 days relative to control; type: functional, organism-based; design: dose 10 mg/kg
Rattus norvegicus [26] = assay: Antiobesity activity in diet-induced obesity rat model assessed as reduction in body weight at 20 mg/kg, po BID for 14 days relative to control; type: functional, organism-based; design: dose 20 mg/kg
[27] = Plasma concentration in rat at 10 mg/kg, iv after 15 mins; type: ADME, organism-based; design: dose 10 mg/kg, route intravenous
Mus musculus [28] = assay: Increase in erectile activity in CN-stimulated mouse at 10 mg/kg, iv; type: functional, organism-based; design: dose 10 mg/kg
Mus musculus [29] = assay: Antiobesity activity in diet-induced obesity mouse model assessed as reduction in food intake at 20 mg/kg after 4 hrs post dosing relative to control; type: functional, organism-based; design: dose 20 mg/kg
[30] = molecular target: Voltage-gated inwardly rectifying potassium channel KCNH2 (Homo sapiens, UniProt Q12809); assay: Inhibition of human ERG
Chain of Voltage-gated inwardly rectifying potassium channel KCNH2 (Q12809 whole entry): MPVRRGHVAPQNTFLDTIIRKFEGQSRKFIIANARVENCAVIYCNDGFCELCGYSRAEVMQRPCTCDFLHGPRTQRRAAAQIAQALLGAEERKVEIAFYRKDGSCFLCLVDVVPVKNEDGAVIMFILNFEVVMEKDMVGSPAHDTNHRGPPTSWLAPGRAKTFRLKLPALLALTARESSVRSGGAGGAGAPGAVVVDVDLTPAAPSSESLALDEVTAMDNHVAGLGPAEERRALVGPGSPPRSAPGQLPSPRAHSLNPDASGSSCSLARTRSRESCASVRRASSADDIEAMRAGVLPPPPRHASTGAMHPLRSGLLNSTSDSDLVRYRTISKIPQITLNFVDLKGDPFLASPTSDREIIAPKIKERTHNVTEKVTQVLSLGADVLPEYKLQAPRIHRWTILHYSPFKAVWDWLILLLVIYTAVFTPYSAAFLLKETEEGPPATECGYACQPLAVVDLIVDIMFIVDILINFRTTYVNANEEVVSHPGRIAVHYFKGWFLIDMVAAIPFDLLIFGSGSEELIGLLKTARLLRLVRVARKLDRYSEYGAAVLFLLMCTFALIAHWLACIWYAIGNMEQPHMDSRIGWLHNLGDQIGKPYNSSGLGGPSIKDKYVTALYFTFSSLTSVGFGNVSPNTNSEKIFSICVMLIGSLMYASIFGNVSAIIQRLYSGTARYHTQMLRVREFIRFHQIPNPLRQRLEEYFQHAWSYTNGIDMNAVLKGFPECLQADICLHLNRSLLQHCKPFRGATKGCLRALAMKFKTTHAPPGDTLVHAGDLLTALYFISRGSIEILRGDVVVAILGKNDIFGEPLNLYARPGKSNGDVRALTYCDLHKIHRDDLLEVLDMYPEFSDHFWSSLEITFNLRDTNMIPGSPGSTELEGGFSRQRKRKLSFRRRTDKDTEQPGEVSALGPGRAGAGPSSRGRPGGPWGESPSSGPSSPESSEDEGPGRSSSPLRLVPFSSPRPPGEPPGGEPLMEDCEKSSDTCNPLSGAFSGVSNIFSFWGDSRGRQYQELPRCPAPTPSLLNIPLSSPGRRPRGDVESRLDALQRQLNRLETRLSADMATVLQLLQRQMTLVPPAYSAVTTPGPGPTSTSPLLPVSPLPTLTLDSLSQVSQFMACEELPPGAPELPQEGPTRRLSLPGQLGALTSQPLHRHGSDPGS

[31] = Binding affinity to calcium channel
[32] = Binding affinity to sodium channel
Mus musculus [33] = assay: Increase in erectile activity in CN-stimulated mouse at 0.3 mg/kg, iv; type: functional, organism-based; design: dose 0.3 mg/kg
[34] = Plasma concentration in rat at 0.3 mg/kg, iv after 15 mins; type: ADME, organism-based; design: dose 0.3 mg/kg, route intravenous

IC50 [1] [nM] | IC50 (Melanocortin receptor 3 [2]) [nM] | IC50 (Melanocortin receptor 4 [3]) [nM] | IC50 (Melanocortin receptor 5 [4]) [nM] | EC50 [5] [nM] | Activity [6] [%] | Activity (Melanocortin receptor 3 [7]) [%] | Activity (Melanocortin receptor 4 [8]) [%] | Activity (Melanocortin receptor 5 [9]) [%] | bioavailability [10] [%] | clearance [11] [mL/min/kg] | Vd [12] [L/kg] | half-life [13] [h] | EC50 (Melanocortin receptor 4 [14]) [nM] | EC50 (Melanocortin receptor 5 [15]) [nM] | SMILES | further results
2800 | 390 | 5.1 | 1300 | 400 | 31 | 0 | 18 | 1 | 18 | 62 | 8.2 | 1.8 |  |  | CC[C@@H]1CN(C(=O)N[C@H](Cc2ccc(F)cc2)C(=O)N2CCC(C(=O)NC(C)(C)C)(C3CCCCC3)CC2)C[C@@H](CC)N1 | 
5100 | 650 | 4.9 | 850 |  | 30 | 3.6 | 59 | 22 | 28 | 35 | 4.7 | 2 | 22 | > 3000 | C[C@@H]1CN(C(=O)N[C@H](Cc2ccc(F)cc2)C(=O)N2CCC(C(=O)NC(C)(C)C)(C3CCCCC3)CC2)C[C@H](C)N1 | bioavailability [16]: 118%; CL/F [17]: 5.4 mL/min/kg; Vdss (Canis familiaris): 1.8 L/kg; half-life [18]: 5.1 h; bioavailability [19]: 20%; CL/F [20]: 5.2 mL/min/kg; Vdss (Rhesus monkey): 1 L/kg; half-life [21]: 5.3 h; Activity (Mus musculus [22]): 37%; Activity (Mus musculus [23]): inactive; Activity (Rattus norvegicus [24]): Active; Activity (Rattus norvegicus [25]): Active; Activity (Rattus norvegicus [26]): Active; concentration at 0.25 h [27]: 4700 nM; Activity (Mus musculus [28]): inactive; Activity (Mus musculus [29]): Active; INH [30]: > 10 µM; Activity [31]: 9.6 µM; Activity [32]: 6.8 µM
3300 | 740 | 12 | 1400 | 250 | 46 | 2 | 58 | 30 |  |  |  |  | 58 | 1400 | C[C@H]1CN(C(=O)N[C@H](Cc2ccc(F)cc2)C(=O)N2CCC(C(=O)NC(C)(C)C)(C3CCCCC3)CC2)C[C@H](C)N1 | 
 |  |  |  |  |  |  |  |  |  |  |  |  |  |  | CC[C@H](NC(C)=O)c1cc(Cl)ccc1C1CCN(C(=O)[C@@H]2CN(C(C)(C)C)C[C@H]2c2ccc(F)cc2F)CC1 | Activity (Rattus norvegicus [25]): Active; Activity (Mus musculus [28]): Active; Activity (Mus musculus [33]): Active; concentration at 0.25 h [34]: 47 nM
7800 | 760 | 16 | 1400 | 910 | 14 | 0.6 | 21 | 14 |  |  |  |  | 60 |  | C[C@@H]1CN(C(=O)N[C@H](Cc2ccc(F)cc2)C(=O)N2CCC(C(=O)NC(C)(C)C)(C3CCCCC3)CC2)C[C@H](C)N1C | 
1500 | 33 | 0.78 | 54 | 280 | 24 | 1.3 | 15 | 26 |  |  |  |  |  | 210 | C[C@@H]1CN(C(=O)N[C@H](Cc2ccc(Cl)cc2)C(=O)N2CCC(C(=O)NC(C)(C)C)(C3CCCCC3)CC2)C[C@H](C)N1 | 
2100 | 230 | 4.7 | 430 | 420 | 24 | 1.2 | 41 | 14 | 46 | 36 | 4.7 | 1.7 | 13 |  | CC[C@@H]1CN(C(=O)N[C@H](Cc2ccc(F)cc2)C(=O)N2CCC(C(=O)NC(C)(C)C)(C3CCCCC3)CC2)C[C@H](CC)N1 | 
2100 | 970 | 11 | 1400 | 260 | 39 | 2.8 | 66 | 31 | 1.9 | 43 | 9.2 | 4.2 | 18 | 1000 | C[C@@H]1CN(C(=O)N[C@H](Cc2ccc(F)cc2)C(=O)N2CCC(C(=O)NC(C)(C)C)(C3CCCCC3)CC2)C[C@@H](C)N1 | 
